Experimental data: paper PMC4267740, “Unprecedented Therapeutic Potential with a Combination of A2A/NR2B Receptor Antagonists as Observed in the 6-OHDA Lesioned Rat Model of Parkinson's Disease” (PLoS ONE, 2014)
“Also recorded” adds a separate entry of the source.

What was measured:
[1] = test system: unilateral 6-OHDA-lesioned rats; assay: L-Dopa-induced contralateral rotations in rotometers, add-on therapy; type: in vivo, rat; conditions: add-on to L-Dopa 25 mg/kg ip; for Contralateral rotations, drugs alone vs vehicle, time for which significant: 10-min intervals, 120 min recording; for Time for which the drug given separately was active in increasing or prolonging the L-Dopa effect on contralateral rotations: each given separately
Method: (§1) To protect norepinephrinergic neurons, animals were administered imipramine HCl (Sigma) 15 minutes before surgery. They were subsequently anesthetized with ketamine (Ceva, 75 mg/kg) and xylazine (Bayer, 10 mg/kg) and placed in stereotaxic frame (David Kopf Instrument). 6-OHDA was injected into the right ascending medial forebrain bundle at the following coordinates (in mm) relative to bregma and surface of the dura, AP = −3.5, ML = −1.5, DV = −8.7. Each rat received one injection of 6-OHDA (4 µg/µl) over a period of 5 minutes (0.5 µl/min) for a total of 10 µg per rat. Animals were monitored for 3 weeks to ensure full recovery and habituation to the environment and experimenters.
(§2) On day 21 post surgery, all rats were challenged with a small dose of subcutaneously administered apomorphine (Sigma, 0.05 mg/kg). Rats showing more than 90 contralateral rotations (360°) over a 45-minute recording period were included in the study. […] For each experiment, rats were allocated to the different experimental groups in order to get the same mean level of basal activity measured at the apomorphine challenge amongst the different experimental groups.
The rats tested one week earlier for general activity (actometers) were once again placed in clear acrylic individual chambers (50×45 cm) with the same treatment (drug and dose) than that previously received plus L-Dopa. Eight chambers were placed on a level, clear glass bottom, held by a robust frame, and were subdivided into four individual test cages of 25×22 cm. A removable acrylic plate served as a lid.
Rotational behaviour was recorded using a home-made computerized system. Rats were fixed in a harness and linked to mechanical sensors connected directly to a computer. Each 360° clock-wise or counter clock-wise turn was automatically recorded for up to 120 minutes at the maximum. Throughout the experiments, rats were allocated to individual test cages.
Four different combinations were administered as add-on treatment to a low active dose of L-Dopa (25 mg/kg, ip) without any dopa decarboxylase inhibitor to avoid any additional pharmacokinetic interaction. The doses of the compounds were selected on the basis of preliminary dose-response curves performed separately for each drug. To avoid ceiling effect with L-Dopa, only submaximal doses of each drug were selected for testing (as it was done previously for monotherapy). Eight L-Dopa naïve animals were tested for each of the four pharmacological condition: vehicle and L-Dopa (25 mg/kg); A2A antagonist followed by vehicle and L-Dopa; vehicle followed by NR2B antagonist and L-Dopa; A2A antagonist followed by NR2B and L-Dopa. Due to the dominance of the L-Dopa-effect on the lesioned striatum, the unilateral 6-OHDA-lesioned rats rotated after the drugs administration and behavioral activity was recorded in rotometers (i.e. level of contralateral rotations).
All drugs were administered i.p. 25 minutes before behavioural recording, except for the Tozadenant and Radiprodil combination which was administered orally 60 minutes before behavioural recording. As Radiprodil was administered orally, L-Dopa was given 45 minutes after the Radiprodil injection whereas for the other combinations L-Dopa was given 15 minutes after the NR2B drug. The drugs, the doses and the combinations given in co-administration to L-Dopa are described in Table 4 .
The impact of treatment with A2A or NR2B receptor antagonists, given alone or in combination, on the effect of L-Dopa on contralateral rotations was also analysed with a three-way mixed ANOVA. The ANOVA included the A2A and the NR2B receptor antagonists (both, 2 levels, vehicle and the drug) as between-group factors combined with time (12 levels) as within-subjects factor. […] The ability of the combination to increase and prolong the activity of L-Dopa was also explored. Consequently, drug effects were analyzed for every 10-min time interval. […]

[2] = test system: unilateral 6-OHDA-lesioned rats; assay: Distance traveled in actometers, monotherapy (without L-Dopa); type: in vivo, rat
Method: as §1, §2
Drug-naïve separate rats were tested individually in clear acrylic chambers (LE8811 IR, Panlab). Locomotion was detected and measured by 16 infrared light-beam sensors located on each side of the enclosure at a height of 3 cm. Sensors were spaced such that the light beams formed a matrix of 15×15 squares over the surface. Activity counts were recorded on a computer and Acti-Track software (Actitrack, Panlab) was used to convert raw data into “distance traveled” and “rearing counts” for analysis as relevant dependent variables.
Six different combinations of A2A/NR2B antagonists were tested without L-Dopa. For each combination, there were four different procedures: vehicle only; A2A antagonist followed by vehicle; vehicle followed by the NR2B antagonist and A2A antagonist followed by the NR2B antagonist. The drugs, doses and combinations are described in Table 3. After drug administration, rats were placed in actometers (open-field) for monitoring the general level of motor activity (distance traveled and rearing counts).
Before undertaking the study, each A2A and NR2B antagonist was tested individually. The doses were selected on the basis of preliminary dose-response curves performed separately for each drug and submaximal dose (i.e. response observed is not at its maximal level) of each drug was selected for the combination studies. The two drugs were administered separately via an intraperitoneal (ip) injection with a 2-minute interval between the two drugs. Five minutes after the second injection, animals were placed in the testing cage for behavioural recording. Due to formulation and exposure issues, Tozadenant and Radiprodil had to be administered orally and therefore recording was started 60 minutes post dosing at this corresponds to maximum plasma concentrations. Eight drug-naïve animals were used for each of the four procedures; 32 in total for each combination. All behavioral experiments were conducted between 8.00 AM and 2.00 PM at the latest. Preliminary pharmacokinetic assays investigated the plasma and brain disposition of selected drugs administered alone or in combination (ie. Tozadenant/Radiprodil, and Sch-58261/Co-101244; 3 animals per group). Tozadenant and Radiprodil were measured in samples obtained 60 minutes after single oral administration at 30 mg/kg. Sch-58261 and Co-101244 were measured in samples collected 90 min after single intraperitoneal administration at 3 mg/kg.
The effects of A2A and NR2B antagonists on the level of motor activity (i.e. distance traveled and rearing counts) were assessed with three-way mixed ANOVA, combining the A2A receptor antagonist (2 levels, vehicle and the A2A drug) and the NR2B antagonist (2 levels, vehicle and the NR2B drug) as between-group factors with the time as within-subjects factor (6 or 9 levels). […]

[3] = test system: NR2B; conditions: In vitro Binding; cited from earlier work
[4] = test system: NR2A; parameters: method as in PMID 19594762; conditions: In vitro Binding; cited from earlier work
[5] = biological target: A1; parameters: method as in PMID 21810444, PMID 9933143, PMID 17236762; conditions: in vitro binding; rat or human; cited from earlier work
[6] = biological target: A2A; parameters: method as in PMID 21810444, PMID 9933143, PMID 17236762; conditions: in vitro binding; rat or human; cited from earlier work
[7] = Sch-58261 0.3 mg/kg ip, Co-101244 1 mg/kg ip
[8] = Sch-58261 1 mg/kg ip, Co-101244 1 mg/kg ip
[9] = Sch-58261 1 mg/kg ip, Merck 22 1 mg/kg ip
[10] = Preladenant 0.03 mg/kg ip, Radiprodil 0.3 mg/kg ip
[11] = Tozadenant 30 mg/kg po, Radiprodil 3 mg/kg po
[12] = Preladenant 0.1 mg/kg ip, Radiprodil 1 mg/kg ip

With `Nc1nc2c(cnn2CCc2ccccc2)c2nc(-c3ccco3)nn12` [Sch-58261] the “Contralateral rotations, drugs main effect, p (three-way mixed ANOVA)” value [1, 7] was “p<0.05”, the “Contralateral rotations, drugs × time effect, p (three-way mixed ANOVA)” value [1, 7] was “p<0.001” and the “Distance traveled, drugs alone vs vehicle, p (Newman-Keuls)” value [2, 8] was “Both p<0.01”. For the same compound, the “Distance traveled, drugs main effect, p (three-way mixed ANOVA)” value (from here on “Distance traveled, drugs main effect, p”) [2, 8] was “p<0.001”, the “Distance traveled, drugs × time effect, p (three-way mixed ANOVA)” value [2, 8] was “p<0.001” and the “Distance traveled, drugs alone vs vehicle, p (Newman-Keuls)” value [2, 9] was “Both p<0.01”. For the same compound, the “Distance traveled, drugs main effect, p” value [2, 9] was “p<0.001”, the “Distance traveled, drugs × time effect, p (three-way mixed ANOVA)” value [2, 9] was “Not significant” and the “Distance traveled, drug alone in comparison to vehicle-treated controls” value ([2]; drug administered alone) was “significant increase”.
In the case of `O=C(Nc1ccc2[nH]c(=O)oc2c1)C(=O)N1CCC(Cc2ccc(F)cc2)CC1` [Radiprodil], the IC50 [3] is listed as 3 to 10 nM, the IC50 [4] is listed as > 10000 nM and the “Contralateral rotations, drugs alone vs vehicle, p (planned contrasts on each 10-min interval)” value [1, 10] is listed as “Not significant”. The “Contralateral rotations, drugs main effect, p (three-way mixed ANOVA)” value [1, 10] was “Not significant”, the “Contralateral rotations, drugs × time effect, p (three-way mixed ANOVA)” value [1, 10] was “p<0.01” and the “Contralateral rotations, drugs alone vs vehicle, p (planned contrasts on each 10-min interval)” value [1, 11] was < 0.05. The “Contralateral rotations, drugs main effect, p (three-way mixed ANOVA)” value [1, 11] was “p<0.01”, the “Contralateral rotations, drugs × time effect, p (three-way mixed ANOVA)” value [1, 11] was “p<0.001” and the “Contralateral rotations, drugs alone vs vehicle, time for which significant” value [1, 11] was 20 ′. For the same compound, the “Time for which the drug given separately was active in increasing or prolonging the L-Dopa effect on contralateral rotations” value [1, 11] was 20 min, the “Distance traveled, drugs main effect, p” value [2, 12] was “p<0.001” and the “Distance traveled, drugs × time effect, p (three-way mixed ANOVA)” value [2, 12] was “p<0.001”. The “Distance traveled, drugs alone vs vehicle, p (Newman-Keuls)” value [2, 11] was “not all drugs when administered alone improved distance traveled; also recorded: Not significant”, the “Distance traveled, drugs main effect, p” value [2, 11] was “p<0.01” and the “Distance traveled, drugs × time effect, p (three-way mixed ANOVA)” value [2, 11] was “p<0.001”.
In the case of `COc1ccc(N2CCOCC2)c2sc(NC(=O)N3CCC(C)(O)CC3)nc12` [Tozadenant], the Ki [5] is listed as 1320 nM, the Ki [6] is listed as 4.9 nM and the “Contralateral rotations, drugs alone vs vehicle, p (planned contrasts on each 10-min interval)” value [1, 11] is listed as < 0.05. The “Contralateral rotations, drugs main effect, p (three-way mixed ANOVA)” value [1, 11] was “p<0.001”, the “Contralateral rotations, drugs × time effect, p (three-way mixed ANOVA)” value [1, 11] was “p<0.001” and the “Contralateral rotations, drugs alone vs vehicle, time for which significant” value [1, 11] was 80 ′. The “Time for which the drug given separately was active in increasing or prolonging the L-Dopa effect on contralateral rotations” value [1, 11] was 80 min, the “Distance traveled, drugs alone vs vehicle, p (Newman-Keuls)” value [2, 11] was “not all drugs when administered alone improved distance traveled; also recorded: Not significant” and the “Distance traveled, drugs main effect, p” value [2, 11] was “p<0.05”. The “Distance traveled, drugs × time effect, p (three-way mixed ANOVA)” value [2, 11] was “p<0.001”.
